Laboratory results from patent US20130315920A1, “Cross Protective Epitopes of Aspergillus Fumigatus and Candida Albicans” (Cell Medica Limited, priority 2010, published 2013).

What was measured:
[1] = system: T-cell lines of 7 donors with different MHC class II alleles; test: Epitope mapping of Crf1 peptides with IFN-γ ELISPOT; type: cell-based, human; details: 7 donors tested, peptide-pulsed autologous DC
Excerpt: (§1) As the identification of potential protective fungal antigens is rather intricate due to the extensiveness of fungal genomes, we analyzed 6 different A. fumigatus recombinant proteins based on their previously reported immunogeneic reactivity in mice and humans^7,10. […] By contrast, GPI-anchored extracellular cell wall glucanase Crf1 and secreted protein peptidase induced high IFN-γ in 6 of 7 and 5 of 10 tested donors, respectively. The response was mediated by CD4^+ TH1 cells, as MHC class II blocking antibody nearly abrogated IFN-γ release (data not shown). Due to the broad response and the sequence similarity to the C. albicans orthologue Crh1, we focused in subsequent experiments on the protein Crf1. By epitope mapping of 7 healthy individuals with different MHC class II alleles, we identified 10 potential candidate epitopes (Table 1). Based on the results obtained by epitope mapping, the probability of antigen presentation by certain MHC class II alleles assessed by epitope prediction^11, previously reported immunogeneic reactivity^12 and sequence similarity to the C. albicans homologue Crh1, we then generated CD4^+ TH1 T-cell clones specific for the peptides p1, p22, p27, p41, p48, p59, p69 and p84 (FIG. 1a and Table 1).
A peptide library covering the complete Crf1 sequence consisting of 94 15-mer peptides overlapping by […] (aa) was divided into sub-pools of 10 peptides and 94 single peptides (p1-p94) (PANATecs). 3 11-mer peptides of p40/41 overlapping by 2aa ([…], […], HTYTIDWTKDA) were obtained from JPT Peptide Technologies.
(§2) For analysis of recombinant proteins and epitope mapping, T-cell lines were generated by incubation of 1×10^7 PBMC per well in 6-well cell culture plates with 5 μg/ml protein or peptide for 7d in the presence of 5 U/ml IL-2 (Proleukin, Chiron). Antigen specificity was analyzed by IFN-γ ELISA^42 after restimulation with autologous monocytes incubated overnight with 5 μg/ml protein in a responder to stimulator (R:S) ratio of 5:1. Epitope mapping was performed by IFN-γ ELISPOT^39 after stimulation with peptide-pulsed autologous DC at a R:S ratio of 10:1.

[2] = system: DC transfected with Crf1 mRNA; test: Peptide-specific T-cell clones stimulated with Crf1 mRNA-transfected DC (IFN-γ); type: cell-based, human; details: for Response of peptide-specific CD4+ T-cell clones to endogenously processed antigen: all donors
Experimental: (§3) T-cell cloning was performed as described in below. T-cell clones were stimulated either with mature peptide-pulsed (2.5 μg/ml) or Crf1 mRNA-transfected DC, immature DC incubated for 24 h with A. fumigatus cell extract (20 μg/ml) in the presence of cytokine maturation cocktail or immature DC incubated for 24 h with inactivated A. fumigatus or C. albicans fungus (multiplicity of infection 3) in a R:S ratio of 5:1.
For T-cell cloning 6×10^7 PBMC were stimulated overnight with 5 μg/ml peptide and 1 μg/ml CD40 antibody (HB14, Miltenyi Biotec). Cells were labelled with anti-CD154^+ microbeads and isolated by magnetic cell separation according to the manufacturers' instructions (Miltenyi Biotec). Selected cells were cultured with γ-irradiated autologous PBMC (ratio 1:50) and cytokines were supplemented as described above. On d14, T-cell clones were generated by limiting dilution in 96-well plates and expanded using the rapid expansion protocol previously described^50.
A. fumigatus Crf1 cDNA was cloned into the pGEM4Z vector (provided by Kris Thielemans) and in vitro transcribed using mMESSAGE mMACHINE T Ultra Kit (Ambion) according to the manufacturers' instructions. Crf1 was fused to the N-terminal domain of the invariant chain to enhance antigen presentation by MHC class II^51,52. Maturated DC were electroporated with 15 μg mRNA at 300V and 150 μF using the EQUIBIO EasyjecT Plus® apparatus (EQUIBIO) in serum-free medium (OptiMEM, Gibco)^41.

C. albicans = test: Peptide-specific T-cell clones stimulated with inactivated C. albicans yeast; type: cell-based, Candida albicans; details: inactivated C. albicans yeast, established strain
Excerpt: A. fumigatus Crf1 p41-specific T-cell clones are cross-reactive to C. albicans and can be activated by different clinical isolates of both fungi. (a) All A. fumigatus Crf1 p41-specific T-cell clones from different donors respond to stimulation with inactivated C. albicans yeast. IFN-γ values are given after subtraction of the negative control. Shown is 1 clone per antigen and donor (representative experiments, n≧3). (b) A. fumigatus Crf1 p41-specific T-cell clones respond to different inactivated clinical isolates of germinating A. fumigatus conidia and C. albicans yeast.
as §3
(§4) Fungal extracts were generated as described^48 and protein content was measured by Bradford protein assay (Perbio Science) according to the manufacturers' instructions. For inactivated fungus Aspergillus conidia were inoculated in growth medium^49 and cultured for 0, 4, 8 or 12 h. Candida species were cultured for 24 h. Fungi were inactivated with 70% ethanol. Ethanol-inactivated fungi and extracts were validated for sterility by subculturing on Sabouraud dextrose agar.

[3] = system: A. flavus, A. nidulans, A. niger, A. terreus, C. glabrata and C. krusei; test: Cross-reactivity of T-cell clones to other Aspergillus and Candida species; type: cell-based; details: data not shown
Excerpt: We then analyzed if our T-cell clones might cross-react to other clinically relevant Aspergillus and Candida species such as A. flavus, A. nidulans, A. niger, A. terreus, C. glabrata and C. krusei because they also express proteins with some sequence similarity to A. fumigatus Crf1. […] Thus, p41-specific TH1 cells represent a core repertoire in antifungal immune responses being reactive to A. fumigatus but also to C. albicans, the second most important pathogenic fungus in HSCT patients.
Fungal strains A. fumigatus D141, A. nidulans FGSCA4, C. albicans SC5314 and clinical isolates A. fumigatus, A. terreus, A. flavus, A. niger, C. albicans, C. glabrata and C. krusei were provided by Sven Krappmann, Joachim Morschhäuser and Reno Frei.

[4] = system: A. fumigatus cell extract; test: Peptide-specific T-cell clones stimulated with DC incubated with A. fumigatus cell extract (IFN-γ); type: cell-based, Aspergillus fumigatus; details: extract 20 μg/ml, DC incubated 24 h
Experimental: as §3, §4

[5] = system: T-cell lines from PBMC of healthy donors; test: IFN-γ ELISA of T-cell lines stimulated with recombinant A. fumigatus proteins; type: cell-based, human; details: 5 μg/ml protein
Excerpt: as §1
A. fumigatus superoxide dismutase^34, catalase^35, peptidase^36 and 1,3-beta-glucanosyl-transferase Gel1^30 were produced in the yeast Pichia pastoris as described^37. Extracellular cell wall glucanase Crf1^37 (cDNA provided by Utz Reichard) and the major allergen and cytotoxin AspF1^10 were expressed with FLAG-Tags in the human cell line phoenix GALV^38.
as §2

In the case of “AKGGTRFPQTPMRLR (peptide epitope of A. fumigatus Crf1) [p48, Crf1 aa 189-203]”, the No. of responders [1] is reported as 3, the “Response of peptide-specific CD4+ T-cell clones to endogenously processed antigen” value (from here on “Response … to endogenously processed antigen”) [2] is reported as “None of the CD4^+ T-cell clones specific for the peptides p48, p69 and p84 responded to Crf1 mRNA-transfected DC” and the “Number of T-cell clones reacting to Crf1 mRNA-transfected DC/number of peptide-specific T-cell clones” value (shortened to “Number of T-cell clones reacting”) ([2]; donor 3) is reported as 0/7. For the same molecule, the “Number of T-cell clones reacting” value ([2]; donor 4) was 0/4 and the “Number of T-cell clones reacting” value ([2]; donor 11) was 0/5.

With “GSSNTGSGSGSGSGS (peptide epitope of A. fumigatus Crf1) [p84, Crf1 aa 333-347]” the No. of responders [1] was 5, the “Response … to endogenously processed antigen” value [2] was “None of the CD4^+ T-cell clones specific for the peptides p48, p69 and p84 responded to Crf1 mRNA-transfected DC” and the “Number of T-cell clones reacting” value ([2]; donor 4) was 0/4. For the same molecule, the “Number of T-cell clones reacting” value ([2]; donor 11) was 0/5.

“MYFKYTAAALAAVLP (peptide epitope of A. fumigatus Crf1) [p1, Crf1 aa 1-15]” was tested, and the No. of responders [1] was 4, the “Response … to endogenously processed antigen” value [2] was “only some of the p1-, p22-, p27- and p59-specific CD4^+ T-cells clones responded to endogenously processed antigen” and the “Number of T-cell clones reacting” value ([2]; donor 5) was 3/3. The “Number of T-cell clones reacting” value ([2]; donor 6) was 1/5, the “Number of T-cell clones reacting” value ([2]; donor 7) was 0/6 and the “Number of T-cell clones reacting” value ([2]; donor 12) was 10/10. For the same molecule, the “Cross-reactivity of peptide-specific T-cell clones to C. albicans” value (C. albicans) was “none of the Crf1 p1-, Cal p27- and Cal p59-specific T-cell clones could be activated”, the “Cross-reactivity to other Aspergillus and Candida species” value [3] was “weak cross-reactivity to A. flavus, A. nidulans and A. terreus” and the “Response of peptide-specific T-cell clones to A. fumigatus extract” value [4] was “most Crf1 p1-specific T-cell clones of 2 of 4 donors responded to A. fumigatus extract”.

“PPNKGLAASTYTADF (peptide epitope of A. fumigatus Crf1) [p9, Crf1 aa 33-47]” gave a No. of responders [1] of 3.

For “SAGPYTMYVKSVRIE (peptide epitope of A. fumigatus Crf1) [p58, Crf1 aa 229-243]”, the No. of responders [1] was 3.

“SSSSVTSSTTSTASS (peptide epitope of A. fumigatus Crf1) [p69, Crf1 aa 273-287]” was tested, and the No. of responders [1] was 3, the “Response … to endogenously processed antigen” value [2] was “None of the CD4^+ T-cell clones specific for the peptides p48, p69 and p84 responded to Crf1 mRNA-transfected DC” and the “Number of T-cell clones reacting” value ([2]; donor 1) was 0/3. The “Number of T-cell clones reacting” value ([2]; donor 4) was 0/2.

With “TGSSTSAGASATPEL (peptide epitope of A. fumigatus Crf1) [p89, Crf1 aa 353-367]” the No. of responders [1] was 4.

“TRFPQTPMRLRLGSW (peptide epitope of A. fumigatus Crf1) [p49, Crf1 aa 193-207]” was tested, and the No. of responders [1] was 4.

“YTMYVKSVRIENANP (11-mer peptide of p40/41) [p59, Crf1 aa 233-247]” was tested, and the No. of responders [1] was 5, the “Response … to endogenously processed antigen” value [2] was “only some of the p1-, p22-, p27- and p59-specific CD4^+ T-cells clones responded to endogenously processed antigen” and the “Number of T-cell clones reacting” value ([2]; donor 5) was 1/3. For the same molecule, the “Number of T-cell clones reacting” value ([2]; donor 6) was 2/2, the “Number of T-cell clones reacting” value ([2]; donor 12) was 1/7 and the “Cross-reactivity of peptide-specific T-cell clones to C. albicans” value (C. albicans) was “none of the Crf1 p1-, Cal p27- and Cal p59-specific T-cell clones could be activated”. The “Cross-reactivity to other Aspergillus and Candida species” value [3] was “none of the Crf1 p27-, p41- and p59-specific T-cell clones showed any cross-reactivity to these fungi” and the “Response of peptide-specific T-cell clones to A. fumigatus extract” value [4] was “only very few T-cell clones specific for Cal p27 and Crf1 p59”.

With catalase the “IFN-γ response” value [5] was “only weak interferon-γ (IFN-γ) responses in some donors”.

In the case of superoxide dismutase, the “IFN-γ response” value [5] is reported as “only weak interferon-γ (IFN-γ) responses in some donors”.

B1: AspF1: recombinant A. fumigatus major allergen and cytotoxin AspF1 (His136Leu) (protein)
chain: ATWTCINQQLNPKTNKWEDKRLLYSQAKAESNSHHAPLSDGKTGSSYPHWFTNGYDGNGKLIKGRTPIKFGKADCDRPPKHSQNGMGKDDHYLLEFPTFPDGHDYKFDSKKPKEDPGPARVIYTYPNKVFCGIVALQRGNQGDLRLCSH
For B1, the “IFN-γ response” value [5] was “only weak interferon-γ (IFN-γ) responses in some donors”.
